This is an account of results in patent US9346761B2, “Arginine methyltransferase inhibitors and uses thereof” (Epizyme, Inc., priority 2013, dated 2016).

This assay deals with T1, Human CARM1 (PRMT4) (Homo sapiens, UniProt Q86X55).
T1 construct: Flag-CARM1-His was eluted with 200 ug/ml FLAG peptide in buffer A; made in house; host or cells: HEK 293F cells (BacMam virus, pFastBacMam)
T1 sequence (Q86X55 with tags, fused parts or gaps isoform Q86X55-1): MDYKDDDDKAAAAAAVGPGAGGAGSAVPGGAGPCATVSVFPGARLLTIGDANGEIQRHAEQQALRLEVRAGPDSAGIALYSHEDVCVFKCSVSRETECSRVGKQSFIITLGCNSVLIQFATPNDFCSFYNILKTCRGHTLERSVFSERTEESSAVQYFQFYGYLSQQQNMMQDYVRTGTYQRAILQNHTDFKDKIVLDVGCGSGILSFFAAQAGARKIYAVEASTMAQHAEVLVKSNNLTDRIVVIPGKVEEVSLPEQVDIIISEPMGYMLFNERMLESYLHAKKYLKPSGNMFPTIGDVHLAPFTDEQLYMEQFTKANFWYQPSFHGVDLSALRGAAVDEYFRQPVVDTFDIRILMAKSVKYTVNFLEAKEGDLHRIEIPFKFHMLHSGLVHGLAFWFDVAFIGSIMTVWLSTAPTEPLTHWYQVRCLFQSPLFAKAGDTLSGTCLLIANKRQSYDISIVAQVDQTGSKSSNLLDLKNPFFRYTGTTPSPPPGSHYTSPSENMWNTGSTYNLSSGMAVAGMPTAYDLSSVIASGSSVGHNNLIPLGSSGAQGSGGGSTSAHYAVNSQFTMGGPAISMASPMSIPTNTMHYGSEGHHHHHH
Briefly: CARM1 biochemical assay (3H-SAM Flashplate, peptide substrate). In short, it runs like this: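 Methylation of a biotin-tagged H3 residues 16-30 peptide by recombinant CARM1 tracked via 3H-SAM incorporation, read as scintillation counts after streptavidin Flashplate capture. Compound and enzyme sat 30 min at room temperature first; unlabelled SAM at 300 uM final stopped the reaction. IC50 from Hill fits of % inhibition normalised to SAH and DMSO controls.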
For the compound `CN(CCN)Cc1cn[nH]c1-c1ccc(F)cc1` [Compound 1], the 50% inhibitory concentration (IC50) (as a rule, the concentration needed to halve the response being measured) was 1.01 to 3 µM.

The compound `CN(CCN)Cc1cnn(C)c1-c1ccc(F)cc1` [Compound 4] showed a concentration for half-maximal inhibition (IC50) of 0.101 to 1 µM.

`CCN(CCNC)Cc1c[nH]nc1-c1ccc(F)cc1` [Compound 9]: the IC50 fell in the range of 1.01 to 3 µM.

In the case of `CNCCN(C)Cc1cnn(C)c1-c1ccc(F)cc1` [Compound 10], the half-maximal inhibitory concentration (IC50) was in the range of 1.01 to 3 µM.

Regarding `CNCCN(C)Cc1cn(CC2CCOCC2)nc1-c1ccc(F)cc1` [Compound 11], the half-inhibitory concentration (IC50) was more than 10 µM.

The compound `CNCCN(C)Cc1cnn(CC2CCOCC2)c1-c1ccc(F)cc1` [Compound 12] gave an IC50 of 3.01 to 10 µM.

In turn, `CNCCN(C)Cc1c[nH]nc1-c1cccc(N)c1` [Compound 32] displayed a half-maximal inhibitory concentration (IC50) of 1.01 to 3 µM.

Turning to `CNCCN(C)Cc1c[nH]nc1-c1ccc(CC#N)cc1` [Compound 34], the half-inhibitory concentration (IC50) was in the range of 1.01 to 3 µM.

Turning to `CNCCN(C)Cc1c[nH]nc1-c1ccccc1O` [Compound 35], the concentration for half-maximal inhibition (IC50) is more than 10 µM.

On to `CNCCN(C)Cc1c[nH]nc1-c1ccccc1Oc1ccccc1` [Compound 36], for which the half-maximal inhibitory concentration (IC50) was more than 10 µM.

Regarding `CNCCN(C)Cc1c[nH]nc1-c1cccc(OC(F)(F)F)c1` [Compound 39], the IC50 was 1.01 to 3 µM.

Turning to `CNCCN(C)Cc1c[nH]nc1-c1ccccc1NS(C)(=O)=O` [Compound 41], the IC50 was more than 10 µM.

For the compound `CNCCN(C)Cc1c[nH]nc1-c1cccc(NC(C)=O)c1` [Compound 42], the IC50 fell in the range of 1.01 to 3 µM.

The compound `CNCCN(C)Cc1c[nH]nc1-c1cccc(C(C)=O)c1` [Compound 44] registered an IC50 of 1.01 to 3 µM.

As for `CNCCN(C)Cc1c[nH]nc1-c1ccc(C(=O)c2ccccc2)cc1` [Compound 45], the IC50 is less than 0.1 µM.

On to `CNCCN(C)Cc1c[nH]nc1-c1ccccc1-c1ccccc1` [Compound 46], for which the IC50 is more than 10 µM.

`CNCCN(C)Cc1c[nH]nc1-c1ccc(-c2ccccc2)cc1` [Compound 47] came in with an IC50 of less than 0.1 µM.

Regarding `CNCCN(C)Cc1c[nH]nc1-c1ccccc1F` [Compound 48], the IC50 was in the range of 3.01 to 10 µM.

For the compound `CNCCN(C)Cc1c[nH]nc1-c1ccc(F)cc1F` [Compound 49], the concentration for half-maximal inhibition (IC50) is 3.01 to 10 µM.

Regarding `CNCCN(C)Cc1c[nH]nc1-c1cc(F)ccc1F` [Compound 50], the 50% inhibitory concentration (IC50) lay in the range of 3.01 to 10 µM.

As for `CNCCN(C)Cc1c[nH]nc1-c1ccc(F)c(F)c1` [Compound 51], the half-maximal inhibitory concentration (IC50) lay in the range of 0.101 to 1 µM.

Compound `CNCCN(C)Cc1c[nH]nc1-c1ccc(OC)c(F)c1` [Compound 52] registered an IC50 of 1.01 to 3 µM.

`CNCCN(C)Cc1c[nH]nc1-c1cc(Cl)ccc1OC` [Compound 53] returned an IC50 of more than 10 µM.

The compound `CNCCN(C)Cc1c[nH]nc1-c1cccc(OC)c1OC` [Compound 54] yielded an IC50 of more than 10 µM.

In turn, `CNCCN(C)Cc1c[nH]nc1-c1ccc(OC)cc1OC` [Compound 55] yielded a concentration for half-maximal inhibition (IC50) of 3.01 to 10 µM.

The compound `CNCCN(C)Cc1c[nH]nc1-c1c(OC)cccc1OC` [Compound 56] displayed an IC50 of more than 10 µM.

`CNCCN(C)Cc1c[nH]nc1-c1cccc2ccccc12` [Compound 57] registered an IC50 of 1.01 to 3 µM.

The compound `CNCCN(C)Cc1c[nH]nc1-c1ccc2ccccc2c1` [Compound 58] came in with an IC50 of 0.101 to 1 µM.

In the case of `CNCCN(C)Cc1cn(CCC(O)CO)nc1-c1ccc(F)cc1` (stereo not shown) [Compound 59], the half-inhibitory concentration (IC50) is 3.01 to 10 µM.

Consider `CCNCCN(C)Cc1c[nH]nc1-c1ccc(F)cc1` [Compound 60], for which the half-maximal inhibitory concentration (IC50) was more than 10 µM.

With `COCCn1cc(CN(C)CCN(C)C)c(-c2ccc(F)cc2)n1` [Compound 61], the half-maximal inhibitory concentration (IC50) is more than 10 µM.

`CCN(CCN)Cc1c[nH]nc1-c1ccc(F)cc1` [Compound 62] gave a half-inhibitory concentration (IC50) of 0.101 to 1 µM.

In turn, `CCCN(CCN)Cc1c[nH]nc1-c1ccc(F)cc1` [Compound 63] showed a half-inhibitory concentration (IC50) of more than 10 µM.

`COCCn1ncc(CN(C)CCN(C)C)c1-c1ccc(F)cc1` [Compound 64] registered a 50% inhibitory concentration (IC50) of more than 10 µM.

Turning to `CN(CCN)Cc1cnn(CCO)c1-c1ccc(F)cc1` [Compound 65], the half-inhibitory concentration (IC50) is 3.01 to 10 µM.

As to `CN(CCN)Cc1cn(CCO)nc1-c1ccc(F)cc1` [Compound 66], the half-inhibitory concentration (IC50) was 3.01 to 10 µM.

As to `CC(C)Oc1ccc(-c2n[nH]cc2CN(C)CCN)cc1` [Compound 67], the IC50 was 0.101 to 1 µM.

Compound `CN(CCN)Cc1c[nH]nc1-c1ccc(C#N)cc1` [Compound 68] came in with an IC50 of 0.101 to 1 µM.

In turn, `CN(CCN)Cc1n[nH]cc1-c1ccc(F)cc1` [Compound 69] yielded an IC50 of 3.01 to 10 µM.

The compound `CN(CCN)Cc1c[nH]nc1-c1cccc(C#N)c1` [Compound 70] displayed a half-inhibitory concentration (IC50) of 3.01 to 10 µM.

`CN(CCN)Cc1c[nH]nc1-c1cccc(F)c1` [Compound 71]: the IC50 was in the range of 0.101 to 1 µM.

`CN(CCN)Cc1c[nH]nc1-c1ccccc1F` [Compound 72] gave an IC50 of 3.01 to 10 µM.

Turning to `CN(CCN)Cc1c[nH]nc1-c1ccccc1` [Compound 73], the half-maximal inhibitory concentration (IC50) lay in the range of 1.01 to 3 µM.

Regarding `CN(CCN)Cc1c[nH]nc1-c1ccc(C(C)(C)C)cc1` [Compound 74], the IC50 lay in the range of 3.01 to 10 µM.

For `CC(C)N(CCN)Cc1c[nH]nc1-c1ccc(F)cc1` [Compound 75], the IC50 was more than 10 µM.

Compound `CN(CCN)Cc1cn(CC(O)CO)nc1-c1ccc(F)cc1` (stereo not shown) [Compound 76] registered an IC50 of more than 10 µM.

`CN(CCN)Cc1cn(C2COC2)nc1-c1ccc(F)cc1` [Compound 77] returned a concentration for half-maximal inhibition (IC50) of 3.01 to 10 µM.

`NCCN(Cc1c[nH]nc1-c1ccc(F)cc1)C1CC1` [Compound 78]: the IC50 is more than 10 µM.

On to `CN(CCN)Cc1cn(CC2COC2)nc1-c1ccc(F)cc1` [Compound 79], for which the IC50 was more than 10 µM.

Regarding `CN(CCN)Cc1cnn(CC2COC2)c1-c1ccc(F)cc1` [Compound 80], the IC50 was more than 10 µM.

In the case of `CN(CCN)Cc1cnn(C2COC2)c1-c1ccc(F)cc1` [Compound 81], the half-inhibitory concentration (IC50) lay in the range of 1.01 to 3 µM.

As to `CN(CCN)Cc1c[nH]nc1-c1ccc(N2CCNCC2)cc1` [Compound 82], the half-maximal inhibitory concentration (IC50) is 3.01 to 10 µM.

The compound `CN(CCN)Cc1nn(C)cc1-c1ccc(C#N)cc1` [Compound 83] came in with a half-maximal inhibitory concentration (IC50) of 1.01 to 3 µM.

The compound `CN(CCN)Cc1c(-c2ccc(C#N)cc2)cnn1C` [Compound 84] registered an IC50 of more than 10 µM.

As to `CN(CCN)Cc1c[nH]nc1-c1ccc(C(F)(F)F)cc1C(F)(F)F` [Compound 85], the IC50 was more than 10 µM.

As for `CN(CCN)Cc1c[nH]nc1-c1ccc(Cl)cc1Cl` [Compound 86], the IC50 lay within 3.01 to 10 µM.

In turn, `COc1ccc(-c2n[nH]cc2CN(C)CCN)c(OC)c1` [Compound 87] showed a concentration for half-maximal inhibition (IC50) of 3.01 to 10 µM.

Regarding `Cc1ccc(-c2n[nH]cc2CN(C)CCN)c(C)c1` [Compound 88], the half-inhibitory concentration (IC50) lay in the range of 3.01 to 10 µM.

`CN(CCN)Cc1c[nH]nc1-c1ccc(F)cc1Cl` [Compound 89] came in with a half-maximal inhibitory concentration (IC50) of 3.01 to 10 µM.

Turning to `Cc1ccc(-c2n[nH]cc2CN(C)CCN)c(Cl)c1` [Compound 90], the IC50 fell in the range of 3.01 to 10 µM.

Take `Cc1ccc(Cl)c(-c2n[nH]cc2CN(C)CCN)c1` [Compound 91]: the IC50 is more than 10 µM.

`CN(CCN)Cc1c[nH]nc1-c1ccc(C(F)(F)F)cc1` [Compound 92]: the IC50 lay in the range of 0.101 to 1 µM.

The compound `CN(CCN)Cc1c[nH]nc1-c1ccc(OC(F)(F)F)cc1` [Compound 93] displayed an IC50 of 1.01 to 3 µM.

`CN(CCN)Cc1c[nH]nc1-c1ccc(OC(F)F)cc1` [Compound 94] yielded an IC50 of 0.101 to 1 µM.
